In patent publication US11839613B2, “Pyrimidine derivatives as PGE2 receptor modulators” (IDORSIA PHARMACEUTICALS LTD, priority 2017, dated 2023):

Columns and labels:
EP2 = EP2 (Homo sapiens (Human), UniProt P43116); experiment: hEP2 cAMP assay (SF295 glioblastoma cells, HTRF cAMP); assay type: cell-based; conditions: antagonistic activity
From the text: (§1) Human tumor cell lines expressing endogenously either EP4 or EP2 are used and cAMP accumulation in cells upon PGE2 stimulation is monitored. SF295 glioblastoma cells express high endogenous EP2 and no EP4, whereas BT549 breast cancer cells, express high endogenous EP4 levels and very low EP2 levels.
(§2) As a detection method for cAMP the HTRF (homogeneous time resolved fluorescence) Cisbio kit (HTRF cAMP dynamic 2 kit 20'000 tests Cisbio Cat. #62AM4PEC) was used, which is based on a competitive immunoassay using a Cryptate-labeled anti-cAMP antibody and d2-labeled cAMP. Native cAMP produced by cells or unlabeled cAMP (for the standard curve) compete with exogenously added d2-labeled cAMP (acceptor) for binding to monoclonal anti-cAMP-Eu3+Cryptate (donor). A FRET signal (Fluorescence Resonance Energy Transfer) is obtained only if the labeled anti-cAMP antibody binds the d2 labelled cAMP, thus the specific signal (i.e. energy transfer) is inversely proportional to the concentration of cAMP in the standard or sample.
(§3) Cells are counted washed and resuspended in assay buffer (AB; HBSS, 20 mM HEPES, 0.2% BSA; 2 mM IBMX).
Plate is pre-incubated 45 minutes at RT. […] Plate is incubated 30 minutes at RT.

EP4 = EP4 (Homo sapiens (Human), UniProt P35408); experiment: hEP4 cAMP assay (BT549 breast cancer cells, HTRF cAMP); assay type: cell-based; conditions: antagonistic activity, PGE2 6 nM
From the text: as §1, §2, §3
Plate is pre-incubated 45 minutes at RT. Subsequently, 2.5 microliters of PGE2 (final conc. 6 nM) are transferred into the assay plate. Plate is incubated 30 minutes at RT.

PTGER4 (EP4) = PTGER4 (EP4) (Homo sapiens (Human), UniProt P35408); experiment: cell-based
Chain of PTGER4 (EP4) (P35408 whole entry): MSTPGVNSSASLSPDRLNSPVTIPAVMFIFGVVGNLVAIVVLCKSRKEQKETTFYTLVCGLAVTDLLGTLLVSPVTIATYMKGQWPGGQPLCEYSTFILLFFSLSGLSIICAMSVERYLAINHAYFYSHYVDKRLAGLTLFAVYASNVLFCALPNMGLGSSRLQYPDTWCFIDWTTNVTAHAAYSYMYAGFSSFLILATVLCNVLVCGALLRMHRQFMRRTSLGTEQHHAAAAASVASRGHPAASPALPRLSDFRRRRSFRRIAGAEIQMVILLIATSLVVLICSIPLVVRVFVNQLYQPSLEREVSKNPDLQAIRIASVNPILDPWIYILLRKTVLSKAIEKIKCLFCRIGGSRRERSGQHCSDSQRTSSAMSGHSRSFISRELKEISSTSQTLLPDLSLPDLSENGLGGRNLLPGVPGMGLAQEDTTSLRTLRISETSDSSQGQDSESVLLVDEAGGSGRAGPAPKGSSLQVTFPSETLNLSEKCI

Chain of EP2 (P43116 whole entry): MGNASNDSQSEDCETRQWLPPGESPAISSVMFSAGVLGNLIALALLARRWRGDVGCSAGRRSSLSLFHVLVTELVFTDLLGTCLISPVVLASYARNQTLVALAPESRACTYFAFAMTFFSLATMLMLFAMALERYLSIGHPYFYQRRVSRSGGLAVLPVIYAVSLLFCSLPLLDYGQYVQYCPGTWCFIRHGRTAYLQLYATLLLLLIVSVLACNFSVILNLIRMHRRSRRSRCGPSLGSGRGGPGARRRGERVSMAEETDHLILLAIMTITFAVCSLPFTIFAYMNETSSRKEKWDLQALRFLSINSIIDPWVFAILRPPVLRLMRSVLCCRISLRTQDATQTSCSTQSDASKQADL
Chain of EP4 (P35408 whole entry): as the sequence (P35408 whole entry) above

IC50 (EP2)	IC50 (EP4)	IC50 (PTGER4 (EP4))	SMILES
324 nM	95 nM	19 nM	CCOc1cc(-c2cc(NCCc3cc4ccccc4cc3OC)ncn2)ccc1OCC(=O)O [Ex 122, (2-Ethoxy-4-{6-[2-(3-methoxy-naphthalen-2-yl)-ethylamino]-pyrimidin-4-yl}-phenoxy)-acetic acid]
588 nM	97 nM	353 nM	Fc1cc2ncccc2c(F)c1CCNc1cc(-c2ccc3ncccc3c2)ncn1 [Ex 123, [2-(5,7-Difluoro-quinolin-6-yl)-ethyl]-(6-quinolin-6-yl-pyrimidin-4-yl)-amine]
423 nM	106 nM	23 nM	CCOc1cc(-c2cc(NCCc3ccc4ccccc4c3C)ncn2)sc1/C=C/C(=O)O [Ex 130]
482 nM	109 nM	42 nM	CCOc1cc(-c2cc(NCCc3ccc4c(c3)c(C)cn4C)ncn2)sc1C(=O)O [Ex 133]
677 nM	120 nM	29 nM	CCOc1cc(-c2cc(NCCc3ccc4ccccc4c3F)ncn2)ccc1OCC(=O)O [Ex 136]
787 nM	128 nM	22 nM	CCOc1cc(-c2cc(NCCc3cc4c(cc3OC)CCCC4)ncn2)ccc1OCC(=O)O [Ex 143]
519 nM	134 nM	90 nM	CCOc1cc(-c2cc(NCCc3cc4c(cc3SC)OCCO4)ncn2)ccc1OCC(=O)O [Ex 145]
571 nM	141 nM	219 nM	O=C(O)c1ccc(-c2cc(NCCc3ccc4ccsc4c3)ncn2)cc1OC1CCC1 [Ex 147]
340 nM	146 nM	757 nM	CCSc1cc(-c2cc(NCCc3c(F)cc4ncccc4c3F)ncn2)ccc1C(=O)O [Ex 153]
524 nM	130 nM	199 nM	CCOc1cc(-c2cc(NCCc3ccc4sccc4c3)ncn2)ccc1C(C)C(=O)O (stereo not drawn) [Ex 161]
371 nM	158 nM	134 nM	CCOc1cc(-c2cc(NCCc3cc4ccccc4cc3OC)ncn2)ccc1C(=O)O [Ex 162]
297 nM	165 nM	49 nM	CCOc1cc(-c2cc(NCCc3ccc4ccccc4c3C)ncn2)ccc1OCC(=O)O [Ex 166]
714 nM	166 nM	361 nM	CCOc1cc(-c2cc(NCCc3ccc4ccsc4c3)ncn2)ccc1C(=O)O [Ex 167, 4-[6-(2-Benzo[b]thiophen-6-yl-ethylamino)-pyrimidin-4-yl]-2-ethoxy-benzoic acid]
301 nM	185 nM	179 nM	CCOc1cc(-c2cc(NCCc3cc4c(cc3OC)OCCO4)ncn2)ccc1CC(=O)O [Ex 175]
293 nM	185 nM	179 nM	CSc1cc(-c2cc(NCCc3ccc4ccsc4c3)ncn2)ccc1C(=O)O [Ex 176]
452 nM	200 nM	258 nM	CSc1cc(-c2cc(NCCc3ccc4c(c3)CCC4)ncn2)ccc1C(=O)O [Ex 185, 4-[6-(2-Indan-5-yl-ethylamino)-pyrimidin-4-yl]-2-methylsulfanyl-benzoic acid]
295 nM	212 nM	325 nM	CCOc1cc(-c2cc(NCCc3ccc4cc[nH]c4c3)ncn2)ccc1OCC(=O)O [Ex 194, (2-Ethoxy-4-{6-[2-(1H-indol-6-yl)-ethylamino]-pyrimidin-4-yl}-phenoxy)-acetic acid]
373 nM	217 nM	245 nM	CCOc1cc(-c2cc(NCCc3cc4ccoc4cc3F)ncn2)ccc1CC(=O)O [Ex 195]
673 nM	248 nM	234 nM	CCOc1cc(-c2cc(NCCc3ccc4ccn(C)c4c3)ncn2)ccc1OCC(=O)O [Ex 207]

SMILES	IC50 (EP2)	IC50 (EP4)	IC50 (PTGER4 (EP4))
O=C(O)c1ccc(-c2cc(NCCc3ccc4c(c3)CCC4)ncn2)cc1OC1CCC1 [Ex 206, 2-Cyclobutoxy-4-[6-(2-indan-5-yl-ethylamino)-pyrimidin-4-yl]-benzoic acid]	572 nM	248 nM	304 nM
